Columns and labels:
Test in all cases: Postemergence herbicidal activity in direct seeded rice
Format in all cases: in vivo
[1] = system: BRAPP: broadleaf signalgrass, Brachiaria platyphylla
Description: (§1) Seeds or nutlets of the desired test plant species were planted in a soil matrix prepared by mixing a loam soil (43 percent silt, 19 percent clay, and 38 percent sand, with a pH of about 8.1 and an organic matter content of about 1.5 percent) and river sand in an 80 to 20 ratio. The soil matrix was contained in plastic pots with a surface area of 139.7 cm^2. When required to ensure good germination and healthy plants, a fungicide treatment and/or other chemical or physical treatment was applied. The plants were grown for 10-17 d in a greenhouse with an approximate 14-h photoperiod which was maintained at about 29° C. during the day and 26° C. during the night. Nutrients and water were added on a regular basis and supplemental lighting was provided with overhead metal halide 1000-Watt lamps as necessary. The plants were employed for testing when they reached the second or third true leaf stage. A weighed amount, determined by the highest rate to be tested, of each test compound was placed in 25 mL glass vials and dissolved in a volume of 97:3 v/v acetone-DMSO to obtain 12× stock solutions. […] The concentrated stock solutions were added to the spray solutions so that the final acetone and DMSO concentrations were 16.2% and 0.5%, respectively. Spray solutions were diluted to the appropriate final concentrations with the addition of 10 mL of an aqueous mixture of 1.5% (v/v) Agri-dex crop oil concentrate. The final spray solutions contained 1.25% (v/v) Agri-dex crop oil concentrate. Compound requirements are based upon a 12 mL application volume at a rate of 187 L/ha. Formulated compounds were applied to the plant material with an overhead Mandel track sprayer equipped with […] nozzles calibrated to deliver 187 L/ha over an application area of 0.503 square meters (m^2) at a spray height of 18 inches ([…]) above average plant canopy height. Control plants were sprayed in the same manner with the solvent blank. The treated plants and control plants were placed in a greenhouse as described above and watered by sub-irrigation to prevent wash-off of the test compounds. After 20-22 days, the condition of the test plants, compared with that of the untreated plants, was determined visually and scored on a scale of 0 to 100 percent where 0 corresponds to no injury and 100 corresponds to complete kill. By applying the well-accepted probit analysis as described by J. Berkson in […], 48, 565 (1953) and by D. Finney in “Probit Analysis” Cambridge University Press (1952), the above data can be used to calculate GR20, GR50, GR80 and GR90 values, which are defined as growth reduction factors that correspond to the effective dose of herbicide required to kill or control 20 percent, 50 percent, 80 percent or 90 percent, respectively, of a target plant.

[2] = system: CYPDI: small-flower flatsedge, Cyperus difformis
Description: as §1

[3] = system: CYPES: yellow nutsedge, Cyperus esculentus
Description: as §1

[4] = system: CYPIR: rice flatsedge, Cyperus iria
Description: as §1

[5] = system: DIGSA: large crabgrass, Digitaria sanguinalis
Description: as §1

[6] = system: ECHCG: barnyardgrass, Echinochloa crus-galli
Description: as §1

[7] = system: ECHCO: junglerice, Echinochloa colonum
Description: as §1

[8] = system: LEFCH: Chinese sprangletop, Leptochloa chinensis
Description: as §1

ORYSJ: Oryza sativa = system: ORYSJ: Oryza sativa
Description: as §1

ORYSK: Oryza sativa = system: ORYSK: Oryza sativa
Description: as §1

[9] = system: SCPJU: Japanese bulrush, Scirpus juncoides
Description: as §1

[10] = system: SEBEX: hemp sesbania, Sesbania exaltata
Description: as §1

[11] = dose for 50 percent control, probit analysis
[12] = dose for 80 percent control, probit analysis
[13] = dose for 90 percent control, probit analysis
[14] = dose for 20 percent growth reduction, probit analysis

COC(=O)c1nc(-c2ccc3nsnc3c2)c(F)c(N)c1Cl [Compound 11]
Visual Growth Reduction (%) 21 Days After Application BRAPP ([1]; 17.5 g ai/ha): G (0-29) | Visual Growth Reduction (%) 21 Days After Application BRAPP ([1]; 35 g ai/ha): G (0-29) | Visual Growth Reduction (%) 21 Days After Application BRAPP ([1]; 70 g ai/ha): E (45-59) | GR50 BRAPP [1, 11]: >70 g ai/ha | GR80 BRAPP [1, 12]: >70 g ai/ha | GR90 BRAPP [1, 13]: >70 g ai/ha | Visual Growth Reduction (%) 21 Days After Application CYPDI ([2]; 17.5 g ai/ha): A (95-100) | Visual Growth Reduction (%) 21 Days After Application CYPDI ([2]; 35 g ai/ha): A (95-100) | Visual Growth Reduction (%) 21 Days After Application CYPDI ([2]; 70 g ai/ha): A (95-100) | GR50 CYPDI [2, 11]: 6 g ai/ha | GR80 CYPDI [2, 12]: 11 g ai/ha | GR90 CYPDI [2, 13]: 16 g ai/ha | Visual Growth Reduction (%) 21 Days After Application CYPES ([3]; 17.5 g ai/ha): D (60-74) | Visual Growth Reduction (%) 21 Days After Application CYPES ([3]; 35 g ai/ha): G (0-29) | Visual Growth Reduction (%) 21 Days After Application CYPES ([3]; 70 g ai/ha): E (45-59) | GR50 CYPES [3, 11]: >70 g ai/ha | GR80 CYPES [3, 12]: >70 g ai/ha | GR90 CYPES [3, 13]: >70 g ai/ha | Visual Growth Reduction (%) 21 Days After Application CYPIR ([4]; 17.5 g ai/ha): G (0-29) | Visual Growth Reduction (%) 21 Days After Application CYPIR ([4]; 35 g ai/ha): E (45-59) | Visual Growth Reduction (%) 21 Days After Application CYPIR ([4]; 70 g ai/ha): F (30-44) | GR50 CYPIR [4, 11]: 78 g ai/ha | GR80 CYPIR [4, 12]: 212 g ai/ha | GR90 CYPIR [4, 13]: 357 g ai/ha | Visual Growth Reduction (%) 21 Days After Application DIGSA ([5]; 17.5 g ai/ha): E (45-59) | Visual Growth Reduction (%) 21 Days After Application DIGSA ([5]; 35 g ai/ha): E (45-59) | Visual Growth Reduction (%) 21 Days After Application DIGSA ([5]; 70 g ai/ha): D (60-74) | GR50 DIGSA [5, 11]: 11 g ai/ha | GR80 DIGSA [5, 12]: 628 g ai/ha | GR90 DIGSA [5, 13]: 5310 g ai/ha | Visual Growth Reduction (%) 21 Days After Application ECHCG ([6]; 17.5 g ai/ha): E (45-59) | Visual Growth Reduction (%) 21 Days After Application ECHCG ([6]; 35 g ai/ha): C (75-84) | Visual Growth Reduction (%) 21 Days After Application ECHCG ([6]; 70 g ai/ha): B (85-94) | GR50 ECHCG [6, 11]: 6 g ai/ha | GR80 ECHCG [6, 12]: 37 g ai/ha | GR90 ECHCG [6, 13]: 98 g ai/ha | Visual Growth Reduction (%) 21 Days After Application ECHCO ([7]; 17.5 g ai/ha): E (45-59) | Visual Growth Reduction (%) 21 Days After Application ECHCO ([7]; 35 g ai/ha): D (60-74) | Visual Growth Reduction (%) 21 Days After Application ECHCO ([7]; 70 g ai/ha): C (75-84) | GR50 ECHCO [7, 11]: 15 g ai/ha | GR80 ECHCO [7, 12]: 107 g ai/ha | GR90 ECHCO [7, 13]: 300 g ai/ha | Visual Growth Reduction (%) 21 Days After Application LEFCH ([8]; 17.5 g ai/ha): G (0-29) | Visual Growth Reduction (%) 21 Days After Application LEFCH ([8]; 35 g ai/ha): G (0-29) | Visual Growth Reduction (%) 21 Days After Application LEFCH ([8]; 70 g ai/ha): G (0-29) | GR50 LEFCH [8, 11]: 114 g ai/ha | GR80 LEFCH [8, 12]: 186 g ai/ha | GR90 LEFCH [8, 13]: 239 g ai/ha | Visual Growth Reduction (%) 21 Days After Application ORYSJ (ORYSJ: Oryza sativa; 17.5 g ai/ha): G (0-29) | Visual Growth Reduction (%) 21 Days After Application ORYSJ (ORYSJ: Oryza sativa; 35 g ai/ha): G (0-29) | Visual Growth Reduction (%) 21 Days After Application ORYSJ (ORYSJ: Oryza sativa; 70 g ai/ha): G (0-29) | GR20 ORYSJ (ORYSJ: Oryza sativa; [14]): >70 g ai/ha | Visual Growth Reduction (%) 21 Days After Application ORYSK (ORYSK: Oryza sativa; 17.5 g ai/ha): G (0-29) | Visual Growth Reduction (%) 21 Days After Application ORYSK (ORYSK: Oryza sativa; 35 g ai/ha): G (0-29) | Visual Growth Reduction (%) 21 Days After Application ORYSK (ORYSK: Oryza sativa; 70 g ai/ha): G (0-29) | GR20 ORYSK (ORYSK: Oryza sativa; [14]): >70 g ai/ha | Visual Growth Reduction (%) 21 Days After Application SCPJU ([9]; 17.5 g ai/ha): A (95-100) | Visual Growth Reduction (%) 21 Days After Application SCPJU ([9]; 35 g ai/ha): A (95-100) | Visual Growth Reduction (%) 21 Days After Application SCPJU ([9]; 70 g ai/ha): A (95-100) | GR50 SCPJU [9, 11]: 4 g ai/ha | GR80 SCPJU [9, 12]: 9 g ai/ha | GR90 SCPJU [9, 13]: 14 g ai/ha | Visual Growth Reduction (%) 21 Days After Application SEBEX ([10]; 17.5 g ai/ha): C (75-84) | Visual Growth Reduction (%) 21 Days After Application SEBEX ([10]; 35 g ai/ha): A (95-100) | Visual Growth Reduction (%) 21 Days After Application SEBEX ([10]; 70 g ai/ha): A (95-100) | GR50 SEBEX [10, 11]: 4 g ai/ha | GR80 SEBEX [10, 12]: 11 g ai/ha | GR90 SEBEX [10, 13]: 19 g ai/ha
